# Test results from patent US8410161B2, “Thioxanthone ring system derivatives” (National Defense Medical Center, priority 2010, dated 2013).
# Assays:
# SF-295 = assay: NCI in vitro DTP human cell line screen, SF-295; format: cell-based; settings: CNS Cancer, 1.00E−5 Molar
# Protocol: (§1) Then, a cell toxicity assay of the cancer lines made by National Cancer Institute will be discussed as follows. The cell toxicity assay is performed by choosing ten compounds (existing certification numbers) from the 59 compounds disclosed in the present invention first.
# SW-620 = assay: NCI in vitro DTP human cell line screen, SW-620; format: cell-based; settings: Colon Cancer, 1.00E−5 Molar
# Protocol: as §1
# MOLT-4 = assay: NCI in vitro DTP human cell line screen, MOLT-4; format: cell-based; settings: Leukemia, 1.00E−5 Molar
# Protocol: as §1
# OVCAR-4 = assay: NCI in vitro DTP human cell line screen, OVCAR-4; format: cell-based; settings: Ovarian Cancer, 1.00E−5 Molar
# Protocol: as §1
# SK-OV-3 = assay: NCI in vitro DTP human cell line screen, SK-OV-3; format: cell-based; settings: Ovarian Cancer, 1.00E−5 Molar
# Protocol: as §1
# M14 = assay: NCI in vitro DTP human cell line screen, M14; format: cell-based; settings: Melanoma, 1.00E−5 Molar
# Protocol: as §1
# ACHN = assay: NCI in vitro DTP human cell line screen, ACHN; format: cell-based; settings: Renal Cancer, 1.00E−5 Molar
# Protocol: as §1
# SK-MEL-28 = assay: NCI in vitro DTP human cell line screen, SK-MEL-28; format: cell-based; settings: Melanoma, 1.00E−5 Molar
# Protocol: as §1
# LOX IMVI = assay: NCI in vitro DTP human cell line screen, LOX IMVI; format: cell-based; settings: Melanoma, 1.00E−5 Molar
# Protocol: as §1
# IGROV1 = assay: NCI in vitro DTP human cell line screen, IGROV1; format: cell-based; settings: Ovarian Cancer, 1.00E−5 Molar
# Protocol: as §1
# T-47D = assay: NCI in vitro DTP human cell line screen, T-47D; format: cell-based; settings: Breast Cancer, 1.00E−5 Molar
# Protocol: as §1
# SR = assay: NCI in vitro DTP human cell line screen, SR; format: cell-based; settings: Leukemia, 1.00E−5 Molar
# Protocol: as §1
# MALME-3M = assay: NCI in vitro DTP human cell line screen, MALME-3M; format: cell-based; settings: Melanoma, 1.00E−5 Molar
# Protocol: as §1
# RPMI-8226 = assay: NCI in vitro DTP human cell line screen, RPMI-8226; format: cell-based; settings: Leukemia, 1.00E−5 Molar
# Protocol: as §1
# 60 cancer lines = assay: NCI cell toxicity assay of 60 cancer lines, whole panel summary; format: cell-based, human; settings: 1.00E−5 Molar
# Protocol: as §1
# DU145 = assay: NCI in vitro DTP human cell line screen, DU145; format: cell-based; settings: Prostate Cancer, 1.00E−5 Molar
# Protocol: as §1
# UO-31 = assay: NCI in vitro DTP human cell line screen, UO-31; format: cell-based; settings: Renal Cancer, 1.00E−5 Molar
# Protocol: as §1
# OVCAR-3 = assay: NCI in vitro DTP human cell line screen, OVCAR-3; format: cell-based; settings: Ovarian Cancer, 1.00E−5 Molar
# Protocol: as §1
# UACC-62 = assay: NCI in vitro DTP human cell line screen, UACC-62; format: cell-based; settings: Melanoma, 1.00E−5 Molar
# Protocol: as §1
# HS 578-T = assay: NCI in vitro DTP human cell line screen, HS 578-T; format: cell-based; settings: Breast Cancer, 1.00E−5 Molar
# Protocol: as §1
# [1] = MTT assay, HEL299 fibroblast; format: cell-based; settings: human
# From the text: Please refer to FIG. 4C, various cell viabilities of the HEL299 cell lines can be obtained through the MTT assay while the compounds No. 1˜30 are used to treat HEL299 cell lines, wherein HEL299 cell lines are fibroblast.
# HT29 = assay: NCI in vitro DTP human cell line screen, HT29; format: cell-based; settings: Colon Cancer, 1.00E−5 Molar
# Protocol: as §1
# U251 = assay: NCI in vitro DTP human cell line screen, U251; format: cell-based; settings: CNS Cancer, 1.00E−5 Molar
# Protocol: as §1
# NCI-H226 = assay: NCI in vitro DTP human cell line screen, NCI-H226; format: cell-based; settings: Non-Small Cell Lung Cancer, 1.00E−5 Molar
# Protocol: as §1
# HCC-2998 = assay: NCI in vitro DTP human cell line screen, HCC-2998; format: cell-based; settings: Colon Cancer, 1.00E−5 Molar
# Protocol: as §1
# PC-3 = assay: NCI in vitro DTP human cell line screen, PC-3; format: cell-based; settings: Prostate Cancer, 1.00E−5 Molar
# Protocol: as §1
# MDA-MB-468 = assay: NCI in vitro DTP human cell line screen, MDA-MB-468; format: cell-based; settings: Breast Cancer, 1.00E−5 Molar
# Protocol: as §1
# SN12C = assay: NCI in vitro DTP human cell line screen, SN12C; format: cell-based; settings: Renal Cancer, 1.00E−5 Molar
# Protocol: as §1
# SF-268 = assay: NCI in vitro DTP human cell line screen, SF-268; format: cell-based; settings: CNS Cancer, 1.00E−5 Molar
# Protocol: as §1
# SF-539 = assay: NCI in vitro DTP human cell line screen, SF-539; format: cell-based; settings: CNS Cancer, 1.00E−5 Molar
# Protocol: as §1
compound,measurement,setting,value
"O=c1c2ccccc2sc2c(Cl)c(Sc3ccc(Cl)cc3)ccc12 [No. 29, 4-Chloro-3-(4-chlorophenylthio)-9H-thioxanthen-9-one]",Growth Percent,SF-295,57.86%
same,Growth Percent,SW-620,75.00%
same,Growth Percent,MOLT-4,94.77%
same,Growth Percent,OVCAR-4,31.58%
same,Growth Percent,SK-OV-3,73.85%
same,Growth Percent,M14,89.62%
same,Growth Percent,ACHN,39.55%
same,Growth Percent,SK-MEL-28,114.93%
same,Growth Percent,LOX IMVI,63.24%
same,Growth Percent,IGROV1,53.39%
same,Growth Percent,T-47D,85.63%
same,Growth Percent,SR,51.19%
same,Growth Percent,MALME-3M,76.90%
same,Growth Percent,RPMI-8226,88.56%
same,"Growth Percent, Mean",60 cancer lines; mean over all cell lines,78.44%
same,cancer types with the better inhibition effect (in words),60 cancer lines; summary of Table 3,"better inhibition effect on Leukemia, non-small cell lung cancer, colorectal cancer, central nervous system cancer, ovarian cancer and kidney cancer"
same,Growth Percent,DU145,108.68%
same,Growth Percent,UO-31,69.61%
same,Growth Percent,OVCAR-3,90.37%
same,Growth Percent,UACC-62,82.23%
same,Growth Percent,HS 578-T,102.79%
same,viability,[1],74.5 ± 9.39%
same,Growth Percent,HT29,86.36%
same,Growth Percent,U251,47.77%
same,Growth Percent,NCI-H226,81.05%
same,Growth Percent,HCC-2998,98.92%
same,Growth Percent,PC-3,77.10%
same,Growth Percent,MDA-MB-468,87.73%
same,Growth Percent,SN12C,70.19%
same,Growth Percent,SF-268,81.14%
same,Growth Percent,SF-539,86.15%
